Earlier results as cited in US10098898B1, “Release stable mesalamine dosage forms” (Handa Pharmaceuticals, LLC, priority 2017, dated 2018).

Settings: 1% aqueous solution

O=P([O-])([O-])O.[Na+].[Na+] [disodium hydrogen phosphate]
pH: about 9.1
